According to US20230312687A1, “CELL-FREE ANIMAL COLLAGEN, METHODS OF PRODUCTION AND USES THEREOF” (ALEPH FARMS LTD., priority 2020, published 2023):
Entries after “also recorded” stand apart in the source; their conditions may differ.

Assays:
Assay type in all cases: cell-based
[1] = test system: Bovine LOX (lysyl oxidase) gene; experiment: RT-PCR analysis of LOX mRNA level after siRNA transfection; conditions: 20 nM siRNA, bovine stromal cells, 24 hours after transfection, n=2
Method: The Bovine LOX (lysyl oxidase) gene (Gene ID: 280841) was knockdown using siRNA. 20,000 bovine stromal cells/cm^2 were transfected with 20 nM of siRNA sequence against LOX (5′[…]3′; SEQ ID NO:1) or a scramble sequence (5′[…]3′; SEQ ID NO:2) as control, using Dharmacon DharmaFECT 1 transfection reagent. 24 hours after transfection the cells were lysed for RNA extraction. The RNA was reverse transcribed to cDNA and 5 ng/μl were subjected to RT-PCR with the following primers: […]

[2] = test system: bovine embryonic fibroblasts; experiment: Secreted soluble collagen in growth medium (QuickZyme soluble collagen assay, Sirius Red)
Method: (§1) 35,000 bovine embryonic fibroblast cells/cm^2 were seeded in standard medium. 24 hours later the medium was changed to basal medium and the soluble collagen was measured on day 6 or 7. Likewise, 20,000 stromal cells/cm^2 were seeded in basal medium. 24 hours later the cells were transfected with siRNA targeted to LOX or a scramble sequence as a control. After 24 hours the medium was changed to fresh basal medium. The soluble collagen levels were measured daily from day 3 until day 7.
(§2) Secreted soluble collagen was measured using QuickZyme soluble collagen assay which is based on binding of the dye Sirius Red to collagen. Following binding of the dye, the collagen-dye complex precipitates, resulting in a colored pellet. The pellet is re-suspended in an alkaline solution and the absorbance is measured in a plate reader.
• 1. Conditioned culture medium is collected and centrifuged for 10 minutes at 1,500 g (at 4° C.) to remove cell debris. • 2. The supernatant is diluted in a dilution buffer placed in the assay microplate (V-shaped plate). • 3. The collagen standard solution is diluted in serial dilutions in the dilution buffer and placed in the assay microplate (V-shaped plate). • 4. Sirius red dye is added to the samples and to the standards and mixed. • 5. The plate is centrifuged for 60 minutes at 3000×g at 4° C. to precipitate the pellet. • 6. The pellets are washed and resuspended.
(§3) The resuspended colored solution is transferred to the reading microplate (flat bottom) and read at 540 nm.
35,000 bovine embryonic fibroblast cells/cm^2 were expanded in standard medium (DMEM+10% Fetal Bovine Serum+1% penicillin\streptomycin). 24 hours after seeding their medium was changed to basal medium with 50 μM GM6001.
(§4) 35,000 bovine embryonic fibroblast cells/cm^2 were seeded in standard medium (DMEM+10% Fetal Bovine Serum+1% penicillin\streptomycin). 24 hours after seeding the medium was changed to basal medium with different concentration (0-500 μM) of GM6001, a matrix metalloprotease (MMP) inhibitor which prevents C-terminal cleavage of the procollagen. After 4 days, the medium was collected from the cultures and measured for soluble collagen levels. Insoluble collagen was collected from the culture dish its level was measured.

bovine stromal cells = experiment: Secreted soluble collagen in growth medium of stromal cells (QuickZyme soluble collagen assay)
Method: as §1, §2
• 1. Conditioned culture medium is collected and centrifuged for 10 minutes at 1,500 g (at 4° C.) to remove cell debris. • 2. The supernatant is diluted in a dilution buffer placed in the assay microplate (V-shaped plate). • 3. The collagen standard solution is diluted in serial dilutions in the dilution buffer and placed in the assay microplate (V-shaped plate). • 4. Sirius red dye is added to the samples and to the standards and mixed. • 5. […]
as §3

[3] = test system: bovine embryonic fibroblasts; experiment: Insoluble collagen from culture dish (Total Collagen Assay kit, hydroxyproline); conditions: different concentrations of GM6001 (0-500 μM in text, 0-200 μM in legend), 4 days
Method: 24 hours after seeding the medium was changed to basal medium with different concentration (0-500 μM) of GM6001, a matrix metalloprotease (MMP) inhibitor which prevents C-terminal cleavage of the procollagen.
• 1. Wash the cells once with PBS.
as §4

Compound	reduction of LOX expression (mRNA) relative to scramble control [1] [%]	amount of secreted soluble collagen for 10^6 bovine embryonic fibroblasts ([2]; 50 μM GM6001)	increase of soluble collagen in the growth medium vs basal medium ([2]; 50 μM GM6001, 72 hours)	amount of soluble collagen in the growth medium ([2]; Basal medium + 50 μM GM6001, 72 hours, N=6, basal medium alone 375) [μg/10^6 cells]	secreted soluble collagen in the growth medium (in words) ([2]; basal medium supplemented with GM6001, bovine embryonic fibroblasts)	maximum soluble collagen level ([2]; basal medium with 50 μM GM6001, measured daily, maximum on the 7th day) [μg\10^6 cells]	soluble collagen level with increasing GM6001 concentration ([2]; different concentrations of GM6001, 4 days, increase up to about 50 μM)	soluble collagen levels in the growth medium, LOX silencing combined with GM6001 (bovine stromal cells; LOX siRNA-treated bovine stromal cells, basal medium with 50 μM GM6001)	secreted soluble collagen in the growth medium (in words) (bovine stromal cells; basal medium supplemented with GM6001, bovine stromal cells)	insoluble collagen level with increasing GM6001 concentration [3]
5′GCUGAUAACCAGACGGCACUU3′ (listed as RNA, chemistry not given here) [siRNA sequence against LOX]	80	–	–	–	–	–	–	–	–	–
CNC(=O)[C@H](Cc1c[nH]c2ccccc12)NC(=O)[C@@H](CC(=O)NO)CC(C)C [GM6001, Ilomastat]	–	about 1 mg	more than 2 folds	825	enhanced	~900	enriches; also recorded: increased	increased; also recorded: enhanced	enhanced	decrease; also recorded: decreasing
